Data as given in ChEMBL document CHEMBL1152639, “Design, synthesis and nootropic activity of new analogues of sunifiram and sapunifiram, two potent cognition-enhancers” (Bioorg Med Chem, 2009).
The source made the active and inactive calls. The rule behind the calls is not given here.

Key:
Mus musculus [1] = assay: Antiamnesic activity against scopolamine-induced amnesia in ip dosed mouse by passive-avoidance test; type: functional; conditions: read-out: MED
Mus musculus [2] = assay: Ratio of MED for drug to MED for piracetam against scopolamine-induced amnesia in ip dosed mouse by passive-avoidance test; type: functional
Mus musculus [3] = assay: Procognitive effect in ip dosed mouse assessed as inhibition of memory deficit by passive-avoidance test; type: functional; conditions: read-out: MED
Mus musculus [4] = assay: Effect on spontaneous motility in ip dosed mouse by hole-board test; type: functional, organism-based
Mus musculus [5] = assay: Effect on inspection activity in ip dosed mouse by hole-board test; type: functional, organism-based
Mus musculus [6] = assay: Toxicity in ip dosed mouse assessed as change in gross behavior; type: organism-based; conditions: in vivo
Mus musculus [7] = assay: Toxicity in ip dosed mouse assessed as change motor coordination by rota rod test; type: organism-based; conditions: in vivo

## CC(=O)N1CCCN(C(=O)c2ccccc2)C1
Mus musculus [1]
  minimal effective dose: 1 mg/kg

## CC(=O)NC(=O)C1CCN(S(=O)(=O)c2ccc(F)cc2)CC1
Mus musculus [1]
  minimal effective dose: 1 mg/kg

## CCCS(=O)(=O)N1CCCN(C(=O)CC)C1
Mus musculus [1]
  minimal effective dose: > 10 mg/kg

## CC(=O)N1CCCN(C(=O)c2ccccc2)CC1
Mus musculus [2]
  Ratio: 30
Mus musculus [1]
  minimal effective dose: 0.01 mg/kg
Mus musculus [3]
  minimal effective dose: 1 mg/kg

## CCC(=O)N1CCN(S(=O)(=O)c2ccc(F)cc2)CC1
Mus musculus [2]
  Ratio: 30
Mus musculus [1]
  minimal effective dose: 0.01 mg/kg

## CCC(=O)N1CCN(C(=O)Nc2ccccc2)CC1
Mus musculus [1]
  minimal effective dose: > 10 mg/kg

## CC(=O)N1CCCN(C(=O)Cc2ccccc2)CC1
Mus musculus [2]
  Ratio: 30
Mus musculus [1]
  minimal effective dose: 0.01 mg/kg
Mus musculus [3]
  minimal effective dose: 1 mg/kg

## CCC(=O)N1CCN(C(=O)Oc2ccccc2)CC1
Mus musculus [1]
  minimal effective dose: 10 mg/kg

## CCC(=O)N1CCN(C(=O)c2ccccc2)CC1 [SUNIFIRAM]
Mus musculus [4]
  Activity: inactive
Mus musculus [2]
  Ratio: 30
Mus musculus [5]
  Activity: inactive
Mus musculus [6]
  Activity: Non-toxic
Mus musculus [1]
  minimal effective dose: 0.001 mg/kg
Mus musculus [3]
  minimal effective dose: 0.01 mg/kg
Mus musculus [7]
  Activity: Non-toxic

## CCCS(=O)(=O)N1CCN(C(=O)CC)C1
Mus musculus [1]
  minimal effective dose: > 10 mg/kg

## CCC(=O)N1CCCN(S(=O)(=O)c2ccc(F)cc2)CC1
Mus musculus [2]
  Ratio: 30
Mus musculus [1]
  minimal effective dose: 1 mg/kg
Mus musculus [3]
  minimal effective dose: 10 mg/kg

## CCC(=O)N1CCN(C(=O)Cc2ccccc2)CC1
Mus musculus [1]
  minimal effective dose: 1 mg/kg

## CNC(=O)C1CCN(S(=O)(=O)c2ccc(F)cc2)CC1
Mus musculus [1]
  minimal effective dose: 0.1 mg/kg
Mus musculus [3]
  minimal effective dose: 1 mg/kg

## CCCS(=O)(=O)N1CCN(C(C)=O)CC1
Mus musculus [2]
  Ratio: 30
Mus musculus [1]
  minimal effective dose: 0.1 mg/kg

## CCCS(=O)(=O)N1CCN(C(C)=O)C1
Mus musculus [1]
  minimal effective dose: 10 mg/kg

## CCCS(=O)(=O)N1CCCN(C(=O)CC)CC1
Mus musculus [2]
  Ratio: 30
Mus musculus [1]
  minimal effective dose: > 10 mg/kg

## CCC(=O)N1CCC(NC(C)=O)CC1
Mus musculus [1]
  minimal effective dose: > 10 mg/kg

## CCC(=O)N1CCN(S(=O)(=O)c2ccc(F)cc2)C1
Mus musculus [1]
  minimal effective dose: 1 mg/kg

## CC(=O)N1CCCN(S(=O)(=O)c2ccc(F)cc2)CC1
Mus musculus [2]
  Ratio: 30
Mus musculus [1]
  minimal effective dose: 1 mg/kg
Mus musculus [3]
  minimal effective dose: 10 mg/kg

## CCCS(=O)(=O)N1CCN(C(=O)CC)CC1
Mus musculus [2]
  Ratio: 30
Mus musculus [1]
  minimal effective dose: 1 mg/kg

## CCC(=O)N1CCN(C(=O)c2ccccc2)C1
Mus musculus [1]
  minimal effective dose: 1 mg/kg

## CC(=O)N1CCCN(S(=O)(=O)c2ccc(F)cc2)C1
Mus musculus [1]
  minimal effective dose: 1 mg/kg

## CCC(=O)N1CCCN(S(=O)(=O)c2ccc(F)cc2)C1
Mus musculus [1]
  minimal effective dose: 1 mg/kg

## CCC(=O)N1CCCN(C(=O)c2ccccc2)C1
Mus musculus [1]
  minimal effective dose: 1 mg/kg

## NC(=O)CN1CCCC1=O [PIRACETAM]
Mus musculus [4]
  Activity: inactive
Mus musculus [5]
  Activity: inactive
Mus musculus [6]
  Activity: Non-toxic
Mus musculus [1]
  minimal effective dose: 30 mg/kg
Mus musculus [7]
  Activity: Non-toxic

## CCCS(=O)(=O)N1CCCN(C(C)=O)CC1
Mus musculus [2]
  Ratio: 30
Mus musculus [1]
  minimal effective dose: > 10 mg/kg

## CC(=O)N1CCN(S(=O)(=O)c2ccc(F)cc2)CC1
Mus musculus [2]
  Ratio: 30
Mus musculus [1]
  minimal effective dose: 0.01 mg/kg

## CCC(=O)N1CCN(C(=O)CC)CC1
Mus musculus [1]
  minimal effective dose: > 10 mg/kg

## CCNC(=O)C1CCN(S(=O)(=O)c2ccc(F)cc2)CC1
Mus musculus [1]
  minimal effective dose: 1 mg/kg

## CCC(=O)NC1CCN(C(C)=O)CC1
Mus musculus [1]
  minimal effective dose: 10 mg/kg

## CCC(=O)N1CCCN(C(=O)c2ccccc2)CC1
Mus musculus [2]
  Ratio: 30
Mus musculus [1]
  minimal effective dose: 0.1 mg/kg
Mus musculus [3]
  minimal effective dose: 1 mg/kg

## CC(=O)N1CCN(S(=O)(=O)c2ccc(F)cc2)C1
Mus musculus [1]
  minimal effective dose: 1 mg/kg

## CC(=O)NC1CCN(S(=O)(=O)c2ccc(F)cc2)CC1 [SAPUNIFIRAM]
Mus musculus [4]
  Activity: inactive
Mus musculus [5]
  Activity: inactive
Mus musculus [6]
  Activity: Non-toxic
Mus musculus [1]
  minimal effective dose: 0.01 mg/kg
Mus musculus [3]
  minimal effective dose: 0.1 mg/kg
Mus musculus [7]
  Activity: Non-toxic

## CCC(=O)N1CCN(C(C)=O)CC1
Mus musculus [1]
  minimal effective dose: 10 mg/kg

## CC(=O)N1CCN(C(=O)c2ccccc2)C1
Mus musculus [1]
  minimal effective dose: 1 mg/kg

## CCCS(=O)(=O)N1CCCN(C(C)=O)C1
Mus musculus [1]
  minimal effective dose: 1 mg/kg

## CC(=O)N1CCN(C(=O)c2ccccc2)CC1
Mus musculus [2]
  Ratio: 30
Mus musculus [1]
  minimal effective dose: 10 mg/kg
